Patent US20060148712A1, “Monocyte chemoattractant activity of galectin-3” (priority 2000, published 2006)

Key:
[1] = tested on: cell recruitment into mouse air pouches; experiment: Migration assay in vivo (mouse air pouch); set-up: species or system Balb/c mice
Method: The mouse air pouch experiments were performed according to a method described previously (Perretti, et al., J. Immunol. 151:4306-14 (1993)). Briefly, an air pouch was induced on the back of Balb/c mice by injecting 3 ml of air intradermally 2, 4, and 6 days before the experiments. Then, 1 ml of 0.9% sodium chloride (USP grade saline, Baxter Healthcare Corporation, Deerfield, Ill.) containing 1 μM galectin-3 was injected into the pouch. As positive and negative controls, 100 ng/ml of recombinant MCP-1 and diluent only, respectively, were injected. Four h afterwards, recruited cells were recovered by gently lavaging the pouch with 1 ml of PBS containing 1 mM EDTA. Cell number was determined and the distribution of leukocyte types was analyzed after cytospin preparation and Wright staining.

CCR-1 = biological target: T1, CCR-1 (Homo sapiens, UniProt P32246); experiment: Immunoprecipitation and immunoblotting with specific antibodies; assay type: binding
T1 construct: Chemokine receptors expressed on monocytes include CCR-1, CCR-2, CCR-5, and CXCR-4; endogenous in cells
T1 sequence (P32246 1-355): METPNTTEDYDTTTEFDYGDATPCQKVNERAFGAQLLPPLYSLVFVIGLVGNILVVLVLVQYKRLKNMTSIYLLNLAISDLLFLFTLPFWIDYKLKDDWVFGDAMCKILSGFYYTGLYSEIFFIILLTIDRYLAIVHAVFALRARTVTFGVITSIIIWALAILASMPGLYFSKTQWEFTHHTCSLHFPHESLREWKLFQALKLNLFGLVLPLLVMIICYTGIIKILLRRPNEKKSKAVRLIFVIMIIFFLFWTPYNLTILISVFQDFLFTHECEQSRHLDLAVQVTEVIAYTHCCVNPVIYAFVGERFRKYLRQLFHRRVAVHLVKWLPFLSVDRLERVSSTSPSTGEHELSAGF

CCR-5 = biological target: T2, CCR-5 (Homo sapiens, UniProt P51681); experiment: as above; assay type: binding
T2 construct: Chemokine receptors expressed on monocytes include CCR-1, CCR-2, CCR-5, and CXCR-4; endogenous in cells

[2] = 1 μM galectin-3, 1 ml into pouch, 4 h, p<0.05, n=4

T2 sequence (P51681 whole entry): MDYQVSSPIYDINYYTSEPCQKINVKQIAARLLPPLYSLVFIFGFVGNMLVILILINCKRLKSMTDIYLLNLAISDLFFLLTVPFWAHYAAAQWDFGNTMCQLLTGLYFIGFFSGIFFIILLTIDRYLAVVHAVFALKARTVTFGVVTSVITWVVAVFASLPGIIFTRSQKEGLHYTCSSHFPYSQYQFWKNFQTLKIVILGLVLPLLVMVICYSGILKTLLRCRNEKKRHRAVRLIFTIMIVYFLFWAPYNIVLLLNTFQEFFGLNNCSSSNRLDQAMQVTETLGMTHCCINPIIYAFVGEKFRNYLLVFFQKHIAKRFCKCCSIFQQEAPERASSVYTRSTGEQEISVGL

With “galectin-3: Recombinant human galectin-3, a 26 kDa beta-galactoside-binding protein (lectin)” the “Increase in number of monocytes in the air pouch over vehicle (saline)” value [1, 2] was 11.6 times, the “Increase in number of neutrophils in the air pouch over vehicle (saline)” value [1, 2] was 8.21 times and the “Number of eosinophils in the air pouch” value ([1]; 1 μM galectin-3, 4 h, p=0.112) was “not augmented significantly”. For the same substance, the “Number of lymphocytes in the air pouch” value ([1]; 1 μM galectin-3, 4 h, p=0.309) was “not augmented significantly”, the “Interaction with chemokine receptor” value (CCR-1) was “Neither have interactions between galectin-3 and these four chemokine receptors been detected” and the “Interaction with chemokine receptor” value (CCR-5) was “Neither have interactions between galectin-3 and these four chemokine receptors been detected”.
